Paper PMC11899342, “Novel Triazeneindole Antibiotics: Synthesis and Hit-to-Lead Optimization” (International Journal of Molecular Sciences, 2025)
Converted amounts (≈) assume the structure as drawn. Where two headings read alike, the source gives them in different places. Blank lines part the entries; values can stand above or below the molecule they belong to.

Columns and labels:
[1] = Solubility in water by HPLC; assay type: physicochemical; details: water, kinetic from dmso stock
Protocol: The solubility of the compounds in water was assessed using HPLC analysis. Two 1.0 mg portions of the test compounds were dissolved in 10 μL of dimethyl sulfoxide; 1.0 mL of acetonitrile was added to one sample (standard), and 1.0 mL of water was added to the second sample (tested sample). Both vials were mixed in a shaker for 5 min, then centrifuged at 10,000 rpm for 5 min. The supernatants were collected and analyzed using Agilent 1290 Infinity (Agilent Technologies, Santa Clara, CA, USA) with a YMC-Triart C18 50 × 2.0 mm, 1.9 μm column. The concentration of the test compound in water was determined by comparing the peak areas of the standard (concentration 1.0 mg/mL) and the tested sample.

MRSA clinical isolates [2] = experiment: MIC by broth microdilution against multidrug-resistant MRSA clinical isolates; assay type: cell-based, Staphylococcus aureus; details: for MIC Range Against 8 MRSA Strains: 8 multidrug-resistant MRSA clinical isolates, tested 0.125-1 mg/L
Protocol: (§1) Clinical MRSA isolates with multidrug resistance were obtained from the collection of the Research Institute of Antimicrobial Chemotherapy, Smolensk State Medical Academy.
The MICs were determined using a broth microdilution method according to [42]. Briefly, serial dilutions of the tested compounds in 50 µL of Mueller Hinton broth (BD) were prepared in 96-well microplates. The antibiotics vancomycin and linezolid (Sigma-Aldrich, St. Louis, MO, USA) were used as a positive control. Bacterial suspensions of the tested MRSA strains were prepared in the Mueller Hinton broth (BD) with a concentration 1 × 10^6 CFU/mL, and then 50 µL aliquots were added to the prepared microplates. The final concentrations of the antibiotics in the wells were 1, 0.5, 0.25, and 0.125 mg/L, for the tested compounds, and 2 mg/L for vancomycin and linezolid. Negative control (lack of bacterial cells) and growth control (lack of compound) wells were included in all plates. The microplates were incubated at 37 °C for 18 h. The growth was assessed visually after incubation, and the MIC was assumed as the lowest compound concentration at which a noticeable growth of the microorganisms was inhibited (no visible growth). All experiments were conducted in triplicate.

[3] = test system: human embryonic fibroblasts (HEFs); experiment: MTT cytotoxicity on human embryonic fibroblasts; assay type: cell-based; details: Homo sapiens, Fibroblast, 24 h, ND = non-toxic in tested concentrations (up to 50 mg/L)
Protocol: The primary screening of 22 substances was performed on human embryonic fibroblasts (HEFs). […] The HepG2 cell line was obtained from the American Type Culture Collection (ATCC cat. # HB-8065). The primary HEF cells (normal human embryonic fibroblasts) were derived from human embryonic stem cells. The cells were cultured in DMEM/F12 (1:1) medium containing 10% fetal bovine serum (Invitrogen, Carlsbad, CA, USA) at 37 °C and 5% CO2, according to standard mammalian tissue culture protocols and sterile technique. […] The incubation time with the substance was 24 h for all substances and cell lines. Cell detachment by trypsin, centrifugation, and counting in a hemocytometer were performed 16 h before the addition of the substance. For correct counting of the HepG2 cells, the cell suspension was passed through a syringe needle to get rid of cell aggregates. The cells were placed in the wells of a 96-well plate. The number of cells was selected according to the properties of the cell line and the final optical density in the experiment. Fibroblasts and hepatocytes were used in the amount of 10 thousand cells per well in 100 μL of DMEM/F12 medium supplemented with 10% fetal bovine serum. The substances were added to 100 µL of medium in the wells so that the final concentrations were 50, 25, 12.5, 6.25, 3.125, and 1.62 mg/L. The final well volume was 200 µL. The medium containing fetal bovine serum, without added substances, was used as a negative control. After 24 h, excessive amounts of medium were discarded. A total of 30 µL of MTT solution (5 mg/mL in PBS) was added to each well. After the precipitation of formazan crystals (3 h incubation), they were dissolved using 100 μL of dimethyl sulfoxide. The optical density (OD) was measured at 570 nm using a microplate reader (Eppendorf). For every condition, the cell viabilities were assessed in at least three independent experiments for every cell culture. Cell survival was calculated using the following formula:(OD of treated cells − OD blank)/(OD of control cells − OD blank) × 100%, where OD blank represents the OD values in wells without cells but with the addition of the MTT and DMSO solutions. The results were presented in the form of cytotoxicity curves, and the graphs were also plotted in a Microsoft Excel program; the calculation of the IC50 half-maximal inhibition concentration values was performed in a GraphPad Prism 6.0 (GraphPad Software Inc., San Diego, CA, USA) program, based on the equations of the cytotoxicity curves.

MRSA clinical isolates [4] = experiment: Antibiotic susceptibility profile of MRSA clinical isolates (EUCAST breakpoints); assay type: cell-based, Staphylococcus aureus
From the text: as §1

[5] = read-out: Solubility in water, mass concentration
[6] = read-out: Solubility in water, molar concentration

Compound: CCOC(=O)c1[nH]c2ccccc2c1/N=N/N(C)Cc1ccccc1 [BX-SI003, Ethyl (E)-3-(3-benzyl-3-methyltriaz-1-en-1-yl)-1H-indole-2-carboxylate]
- solubility at 5 min [1, 5]: 29.6 µg/mL
- solubility at 5 min [1, 6]: 90 µM
- MIC Range Against 8 MRSA Strains (MRSA clinical isolates [2]): 1 mg/L (≈ 2.97 µM)
- IC50 [3]: 3 µg/mL (≈ 8.92 µM)

Compound: CCOC(=O)c1[nH]c2ccccc2c1/N=N/N1CCCN(C)CC1 [BX-SI005, Ethyl (E)-3-((4-methyl-1,4-diazepan-1-yl)diazenyl)-1H-indole-2-carboxylate]
- solubility at 5 min [1, 5]: 70.2 µg/mL
- solubility at 5 min [1, 6]: 210 µM
- MIC Range Against 8 MRSA Strains (MRSA clinical isolates [2]): 1 mg/L (≈ 3.04 µM)
- IC50 [3]: 12 µg/mL (≈ 36.4 µM)

Compound: CCOC(=O)c1[nH]c2ccccc2c1/N=N/N(C)CCN(C)C [BX-SI010, Ethyl (E)-3-(3-(2-(dimethylamino)ethyl)-3-methyltriaz-1-en-1-yl)-1H-indole-2-carboxylate]
- solubility at 5 min [1, 5]: 475 µg/mL
- solubility at 5 min [1, 6]: 1490 µM
- MIC Range Against 8 MRSA Strains (MRSA clinical isolates [2]): 1 mg/L (≈ 3.15 µM)
- IC50 [3]: 19 µg/mL (≈ 59.9 µM)

Compound: CCOC(=O)c1[nH]c2ccccc2c1/N=N/N1CCC(CCOC)CC1 [BX-SI016, Ethyl (E)-3-((4-(2-methoxyethyl)piperidin-1-yl)diazenyl)-1H-indole-2-carboxylate]
- MIC Range Against 8 MRSA Strains (MRSA clinical isolates [2]): >1 mg/L
- IC50 [3]: 34 µg/mL (≈ 94.9 µM)

Compound: CCOC(=O)c1c(/N=N/N(CC)CC)c2cccnc2n1C [BX-SI019, Ethyl (E)-3-(3,3-diethyltriaz-1-en-1-yl)-1-methyl-1H-pyrrolo[2,3-b]pyridine-2-carboxylate]
- solubility at 5 min [1, 5]: 88.2 µg/mL
- solubility at 5 min [1, 6]: 290 µM
- MIC Range Against 8 MRSA Strains (MRSA clinical isolates [2]): >1 mg/L

Compound: CCOC(=O)c1c(/N=N/N(C)Cc2ccccc2)c2cccnc2n1C [BX-SI020, Ethyl (E)-3-(3-benzyl-3-methyltriaz-1-en-1-yl)-1-methyl-1H-pyrrolo[2,3-b]pyridine-2-carboxylate]
- solubility at 5 min [1, 5]: 7.53 µg/mL
- solubility at 5 min [1, 6]: 20 µM
- MIC Range Against 8 MRSA Strains (MRSA clinical isolates [2]): >1 mg/L

Compound: CCOC(=O)c1c(/N=N/N2CCN(Cc3ccccc3)CC2)c2cccnc2n1C [BX-SI021, Ethyl (E)-3-((4-benzylpiperazin-1-yl)diazenyl)-1-methyl-1H-pyrrolo[2,3-b]pyridine-2-carboxylate]
- solubility at 5 min [1, 5]: 12.5 µg/mL
- solubility at 5 min [1, 6]: 10 µM
- MIC Range Against 8 MRSA Strains (MRSA clinical isolates [2]): >1 mg/L

Compound: CCOC(=O)c1c(/N=N/N(C)CCN(C)C)c2cccnc2n1C [BX-SI027, Ethyl (E)-3-(3-(2-(dimethylamino)ethyl)-3-methyltriaz-1-en-1-yl)-1-methyl-1H-pyrrolo[2,3-b]pyridine-2-carboxylate]
- solubility at 5 min [1, 5]: 927 µg/mL
- solubility at 5 min [1, 6]: 2780 µM
- MIC Range Against 8 MRSA Strains (MRSA clinical isolates [2]): >1 mg/L

Compound: CCOC(=O)c1[nH]c2cc(F)ccc2c1/N=N/N(CC)CC [BX-SI036, Ethyl (E)-3-(3,3-diethyltriaz-1-en-1-yl)-6-fluoro-1H-indole-2-carboxylate]
- solubility at 5 min [1, 5]: 10 µg/mL
- solubility at 5 min [1, 6]: 30 µM
- MIC Range Against 8 MRSA Strains (MRSA clinical isolates [2]): >1 mg/L

Compound: CN[C@H](CC(C)C)C(=O)N[C@H]1C(=O)N[C@@H](CC(N)=O)C(=O)N[C@H]2C(=O)N[C@H]3C(=O)N[C@H](C(=O)N[C@H](C(=O)O)c4cc(O)cc(O)c4-c4cc3ccc4O)[C@H](O)c3ccc(c(Cl)c3)Oc3cc2cc(c3O[C@@H]2O[C@H](CO)[C@@H](O)[C@H](O)[C@H]2O[C@H]2C[C@](C)(N)[C@H](O)[C@H](C)O2)Oc2ccc(cc2Cl)[C@H]1O [Vancomycin, vancomycin]
- Drug sensibility profile (MRSA clinical isolates [4]; MRSA strain 1): S
- Drug sensibility profile (MRSA clinical isolates [4]; MRSA strain 2): S
- Drug sensibility profile (MRSA clinical isolates [4]; MRSA strain 3): S
- Drug sensibility profile (MRSA clinical isolates [4]; MRSA strain 4): S
- Drug sensibility profile (MRSA clinical isolates [4]; MRSA strain 5): S
- Drug sensibility profile (MRSA clinical isolates [4]; MRSA strain 6): S
- Drug sensibility profile (MRSA clinical isolates [4]; MRSA strain 7): S
- Drug sensibility profile (MRSA clinical isolates [4]; MRSA strain 8): S
- Drug sensibility profile (MRSA clinical isolates [4]; MRSA strain 9): S
- Drug sensibility profile (MRSA clinical isolates [4]; MRSA strain 10): S
- Drug sensibility profile (MRSA clinical isolates [4]; MRSA strain 12): S
- Drug sensibility profile (MRSA clinical isolates [4]; MRSA strain 13): S
- Drug sensibility profile (MRSA clinical isolates [4]; MRSA strain 14): S
- Drug sensibility profile (MRSA clinical isolates [4]; MRSA strain 15): S
- Drug sensibility profile (MRSA clinical isolates [4]; MRSA strain 16): S
- Drug sensibility profile (MRSA clinical isolates [4]; MRSA strain 17): S
- Drug sensibility profile (MRSA clinical isolates [4]; MRSA strain 18): S
- Drug sensibility profile (MRSA clinical isolates [4]; MRSA strain 21): S
- Drug sensibility profile (MRSA clinical isolates [4]; MRSA strain 23): S
- Drug sensibility profile (MRSA clinical isolates [4]; MRSA strain 24): S
- Drug sensibility profile (MRSA clinical isolates [4]; MRSA strain 25): S
- Drug sensibility profile (MRSA clinical isolates [4]; MRSA strain 26): S
- Drug sensibility profile (MRSA clinical isolates [4]; MRSA strain 27): S
- Drug sensibility profile (MRSA clinical isolates [4]; MRSA strain 28): S
- Drug sensibility profile (MRSA clinical isolates [4]; MRSA strain 29): S
- Drug sensibility profile (MRSA clinical isolates [4]; MRSA strain 30): S
- Drug sensibility profile (MRSA clinical isolates [4]; MRSA strain 31): S
- Drug sensibility profile (MRSA clinical isolates [4]; MRSA strain 34): S
- Drug sensibility profile (MRSA clinical isolates [4]; MRSA strain 35): S
- Drug sensibility profile (MRSA clinical isolates [4]; MRSA strain 36): S
- Drug sensibility profile (MRSA clinical isolates [4]; MRSA strain 40): S
- Drug sensibility profile (MRSA clinical isolates [4]; MRSA strain 41): S
- Drug sensibility profile (MRSA clinical isolates [4]; MRSA strain 42): S
- Drug sensibility profile (MRSA clinical isolates [4]; MRSA strain 43): S
- Drug sensibility profile (MRSA clinical isolates [4]; MRSA strain 44): S
- Drug sensibility profile (MRSA clinical isolates [4]; MRSA strain 45): S
- Drug sensibility profile (MRSA clinical isolates [4]; MRSA strain 46): S
- Drug sensibility profile (MRSA clinical isolates [4]; MRSA strain 48): S
- Drug sensibility profile (MRSA clinical isolates [4]; MRSA strain 49): S
- Drug sensibility profile (MRSA clinical isolates [4]; MRSA strain 50): S
- Drug sensibility profile (MRSA clinical isolates [4]; MRSA strain 51): S
- MIC (MRSA clinical isolates [2]; Staphylococcus aureus, MRSA, read-out: MIC against 8 MRSA strains): 2 µg/mL (≈ 1.38 µM)

The next lines start with results.

- solubility at 5 min [1, 5]: 18.4 µg/mL
- solubility at 5 min [1, 6]: 50 µM
- MIC Range Against 8 MRSA Strains (MRSA clinical isolates [2]): 1 mg/L (≈ 2.82 µM)
Compound: CCOC(=O)c1[nH]c2cc(F)ccc2c1/N=N/N(C)Cc1ccccc1 [BX-SI037, Ethyl (E)-3-(3-benzyl-3-methyltriaz-1-en-1-yl)-6-fluoro-1H-indole-2-carboxylate]

- solubility at 5 min [1, 5]: 0.383 µg/mL
- solubility at 5 min [1, 6]: 1 µM
- MIC Range Against 8 MRSA Strains (MRSA clinical isolates [2]): >1 mg/L
Compound: CCOC(=O)c1[nH]c2cc(F)ccc2c1/N=N/N1CCN(Cc2ccccc2)CC1 [BX-SI038, Ethyl (E)-3-((4-benzylpiperazin-1-yl)diazenyl)-6-fluoro-1H-indole-2-carboxylate]

- solubility at 5 min [1, 5]: 4.48 µg/mL
- solubility at 5 min [1, 6]: 14 µM
- MIC Range Against 8 MRSA Strains (MRSA clinical isolates [2]): 1 mg/L (≈ 3.12 µM)
Compound: CCOC(=O)c1[nH]c2cc(F)ccc2c1/N=N/N1CCOCC1 [BX-SI040, Ethyl (E)-6-fluoro-3-(morpholinodiazenyl)-1H-indole-2-carboxylate]
- IC50 [3]: 12 µg/mL (≈ 37.5 µM)

- solubility at 5 min [1, 5]: 1.22 µg/mL
- solubility at 5 min [1, 6]: 4 µM
- MIC Range Against 8 MRSA Strains (MRSA clinical isolates [2]): >1 mg/L
Compound: CCOC(=O)c1[nH]c2ccccc2c1/N=N/N1CCC(C)CC1 [BX-SI055, Ethyl (E)-3-((4-methylpiperidin-1-yl)diazenyl)-1H-indole-2-carboxylate]
- IC50 [3]: 16 µg/mL (≈ 50.9 µM)

- solubility at 5 min [1, 5]: 16.7 µg/mL
- solubility at 5 min [1, 6]: 53 µM
- MIC Range Against 8 MRSA Strains (MRSA clinical isolates [2]): 0.5 to 1 mg/L
Compound: CCOC(=O)c1[nH]c2ncccc2c1/N=N/N1CCN(C)CC1 [BX-SI057, Ethyl (E)-3-((4-methylpiperazin-1-yl)diazenyl)-1H-pyrrolo[2,3-b]pyridine-2-carboxylate]
- IC50 [3]: 3 µg/mL (≈ 9.48 µM)
